Values quoted from earlier work, collected in patent US6908924B2, “N4-acylcytosine-1,3-dioxolane nucleosides for treatment of viral infections” (Pharmasset, Inc., priority 2001, dated 2005).

Assays:
HIV-1 = conditions: as a reverse transcriptase inhibitor (RTI)
[1] = target: HIV reverse transcriptase (HIV-RT) (Human immunodeficiency virus type 1 group M subtype B, UniProt P04585)

Row | SMILES | inhibition of HIV-1 replication in vitro (HIV-1) | Ki [1] [nM]
1 | Nc1nc(N)c2ncn([C@H]3CO[C@@H](CO)O3)c2n1 [DAPD, (−)-(2R,4R)-2-amino-9-[(2-hydroxymethyl)-1,3-dioxolan-4-yl]adenine] | selective inhibitor | 
2 | Nc1nc2c(ncn2[C@H]2CO[C@@H](COP(=O)(O)OP(=O)(O)OP(=O)(O)O)O2)c(=O)[nH]1 [DXG-TP] |  | 19
